Experimental data as given in ChEMBL document CHEMBL1671689, “Activity of ceftaroline against recent emerging serotypes of Streptococcus pneumoniae in the United States” (2010).

Legend:
Type in all cases: functional
Streptococcus pneumoniae [1] = test: Antimicrobial activity against Streptococcus pneumoniae serotype 19A by broth microdilution method
Streptococcus pneumoniae [2] = test: Antimicrobial activity against Streptococcus pneumoniae serotype 3 by broth microdilution method
Streptococcus pneumoniae [3] = test: Antimicrobial activity against Streptococcus pneumoniae serotype 35B by broth microdilution method
Streptococcus pneumoniae [4] = test: Antimicrobial activity against Streptococcus pneumoniae serotype 7F by broth microdilution method
Streptococcus pneumoniae [5] = test: Antimicrobial activity against Streptococcus pneumoniae serotype 11A by broth microdilution method
Streptococcus pneumoniae [6] = test: Antimicrobial activity against Streptococcus pneumoniae serotype 6C by broth microdilution method
Streptococcus pneumoniae [7] = test: Antimicrobial activity against multiple drug resistant Streptococcus pneumoniae serotype 19A by broth microdilution method
Streptococcus pneumoniae [8] = test: Antimicrobial activity against multiple drug resistant Streptococcus pneumoniae serotype 19F by broth microdilution method
Streptococcus pneumoniae [9] = test: Antimicrobial activity against multiple drug resistant Streptococcus pneumoniae serotype 6B by broth microdilution method
Streptococcus pneumoniae [10] = test: Antimicrobial activity against Streptococcus pneumoniae serotype 19A assessed as percent susceptible isolates by broth microdilution method
Streptococcus pneumoniae [11] = test: Antimicrobial activity against Streptococcus pneumoniae serotype 3 assessed as percent susceptible isolates by broth microdilution method
Streptococcus pneumoniae [12] = test: Antimicrobial activity against Streptococcus pneumoniae serotype 35B assessed as percent susceptible isolates by broth microdilution method
Streptococcus pneumoniae [13] = test: Antimicrobial activity against Streptococcus pneumoniae serotype 7F assessed as percent susceptible isolates by broth microdilution method
Streptococcus pneumoniae [14] = test: Antimicrobial activity against Streptococcus pneumoniae serotype 11A assessed as percent susceptible isolates by broth microdilution method
Streptococcus pneumoniae [15] = test: Antimicrobial activity against Streptococcus pneumoniae serotype 6C assessed as percent susceptible isolates by broth microdilution method
Streptococcus pneumoniae [16] = test: Antimicrobial activity against multiple drug resistant Streptococcus pneumoniae serotype 19A assessed as percent susceptible isolates by broth microdilution method
Streptococcus pneumoniae [17] = test: Antimicrobial activity against multiple drug resistant Streptococcus pneumoniae serotype 19F assessed as percent susceptible isolates by broth microdilution method
Streptococcus pneumoniae [18] = test: Antimicrobial activity against multiple drug resistant Streptococcus pneumoniae serotype 6B assessed as percent susceptible isolates by broth microdilution method
Streptococcus pneumoniae [19] = test: Antimicrobial activity against Streptococcus pneumoniae serotype 15A assessed as percent susceptible isolates by broth microdilution method
Streptococcus pneumoniae [20] = test: Antimicrobial activity against Streptococcus pneumoniae serotype 22F assessed as percent susceptible isolates by broth microdilution method
Streptococcus pneumoniae [21] = test: Antimicrobial activity against Streptococcus pneumoniae serotype 23B assessed as percent susceptible isolates by broth microdilution method
Streptococcus pneumoniae [22] = test: Antimicrobial activity against Streptococcus pneumoniae serotype 19F assessed as percent susceptible isolates by broth microdilution method
Streptococcus pneumoniae [23] = test: Antimicrobial activity against Streptococcus pneumoniae serotype 23A assessed as percent susceptible isolates by broth microdilution method

CC[C@H]1OC(=O)[C@H](C)[C@@H](O[C@H]2C[C@@](C)(OC)[C@@H](O)[C@H](C)O2)[C@H](C)[C@@H](O[C@@H]2O[C@H](C)C[C@H](N(C)C)[C@H]2O)[C@](C)(O)C[C@@H](C)C(=O)[C@H](C)[C@@H](O)[C@]1(C)O [ERYTHROMYCIN]
> 8 µg/mL: MIC (Streptococcus pneumoniae [7]) | MIC50 (Streptococcus pneumoniae [7]) | MIC90 (Streptococcus pneumoniae [7]) | MIC (Streptococcus pneumoniae [8]) | MIC50 (Streptococcus pneumoniae [8]) | MIC90 (Streptococcus pneumoniae [8]) | MIC (Streptococcus pneumoniae [9]) | MIC50 (Streptococcus pneumoniae [9]) | MIC90 (Streptococcus pneumoniae [9])
> 2 µg/mL: MIC50 (Streptococcus pneumoniae [1]) | MIC90 (Streptococcus pneumoniae [1]) | MIC90 (Streptococcus pneumoniae [3]) | MIC90 (Streptococcus pneumoniae [5]) | MIC50 (Streptococcus pneumoniae [6]) | MIC90 (Streptococcus pneumoniae [6])
64.4%: Activity (Streptococcus pneumoniae [12]) | Activity (Streptococcus pneumoniae [13])
17.2%: Activity (Streptococcus pneumoniae [22])
88.6%: Activity (Streptococcus pneumoniae [20])
75.5%: Activity (Streptococcus pneumoniae [14])
≤ 0.25 µg/mL: MIC50 (Streptococcus pneumoniae [2]) | MIC90 (Streptococcus pneumoniae [2]) | MIC50 (Streptococcus pneumoniae [3]) | MIC (Streptococcus pneumoniae [4]) | MIC50 (Streptococcus pneumoniae [4]) | MIC90 (Streptococcus pneumoniae [4]) | MIC50 (Streptococcus pneumoniae [5])
5.3%: Activity (Streptococcus pneumoniae [19])
0%: Activity (Streptococcus pneumoniae [16]) | Activity (Streptococcus pneumoniae [17]) | Activity (Streptococcus pneumoniae [18])
75.8%: Activity (Streptococcus pneumoniae [21])
26.5%: Activity (Streptococcus pneumoniae [10])
41.9%: Activity (Streptococcus pneumoniae [15])
95.1%: Activity (Streptococcus pneumoniae [11])
78.8%: Activity (Streptococcus pneumoniae [23])

C[C@@H](O)[C@H]1C(=O)N2C(C(=O)O)=C(SCCNC=N)C[C@H]12 [IMIPENEM ANHYDROUS]
95.9%: Activity (Streptococcus pneumoniae [14])
≤ 0.12 µg/mL: MIC (Streptococcus pneumoniae [2]) | MIC50 (Streptococcus pneumoniae [2]) | MIC90 (Streptococcus pneumoniae [2]) | MIC (Streptococcus pneumoniae [4]) | MIC50 (Streptococcus pneumoniae [4]) | MIC90 (Streptococcus pneumoniae [4]) | MIC (Streptococcus pneumoniae [5]) | MIC50 (Streptococcus pneumoniae [5]) | MIC90 (Streptococcus pneumoniae [5]) | MIC (Streptococcus pneumoniae [6]) | MIC50 (Streptococcus pneumoniae [6]) | MIC90 (Streptococcus pneumoniae [6])
40.2%: Activity (Streptococcus pneumoniae [10])
90.7%: Activity (Streptococcus pneumoniae [15])
20.7%: Activity (Streptococcus pneumoniae [22])
100%: Activity (Streptococcus pneumoniae [11]) | Activity (Streptococcus pneumoniae [19]) | Activity (Streptococcus pneumoniae [20]) | Activity (Streptococcus pneumoniae [21]) | Activity (Streptococcus pneumoniae [23])
1 µg/mL: MIC90 (Streptococcus pneumoniae [1]) | MIC50 (Streptococcus pneumoniae [7]) | MIC90 (Streptococcus pneumoniae [7]) | MIC50 (Streptococcus pneumoniae [8]) | MIC90 (Streptococcus pneumoniae [8]) | MIC50 (Streptococcus pneumoniae [9]) | MIC90 (Streptococcus pneumoniae [9])
0.5 µg/mL: MIC50 (Streptococcus pneumoniae [1]) | MIC90 (Streptococcus pneumoniae [3])
0.8%: Activity (Streptococcus pneumoniae [16]) | Activity (Streptococcus pneumoniae [17]) | Activity (Streptococcus pneumoniae [18])
0.25 µg/mL: MIC50 (Streptococcus pneumoniae [3])
15.3%: Activity (Streptococcus pneumoniae [12]) | Activity (Streptococcus pneumoniae [13])

CC(=O)NC[C@H]1CN(c2ccc(N3CCOCC3)c(F)c2)C(=O)O1 [LINEZOLID]
100%: Activity (Streptococcus pneumoniae [10]) | Activity (Streptococcus pneumoniae [11]) | Activity (Streptococcus pneumoniae [12]) | Activity (Streptococcus pneumoniae [13]) | Activity (Streptococcus pneumoniae [14]) | Activity (Streptococcus pneumoniae [15]) | Activity (Streptococcus pneumoniae [19]) | Activity (Streptococcus pneumoniae [20]) | Activity (Streptococcus pneumoniae [21]) | Activity (Streptococcus pneumoniae [22]) | Activity (Streptococcus pneumoniae [23])
1 µg/mL: MIC90 (Streptococcus pneumoniae [1]) | MIC90 (Streptococcus pneumoniae [2]) | MIC50 (Streptococcus pneumoniae [3]) | MIC90 (Streptococcus pneumoniae [3]) | MIC90 (Streptococcus pneumoniae [4]) | MIC50 (Streptococcus pneumoniae [5]) | MIC90 (Streptococcus pneumoniae [5]) | MIC50 (Streptococcus pneumoniae [6]) | MIC90 (Streptococcus pneumoniae [6]) | MIC90 (Streptococcus pneumoniae [7]) | MIC90 (Streptococcus pneumoniae [8]) | MIC90 (Streptococcus pneumoniae [9])
0.5 µg/mL: MIC50 (Streptococcus pneumoniae [1]) | MIC50 (Streptococcus pneumoniae [2]) | MIC50 (Streptococcus pneumoniae [4]) | MIC50 (Streptococcus pneumoniae [7]) | MIC50 (Streptococcus pneumoniae [8]) | MIC50 (Streptococcus pneumoniae [9])

COc1c(N2C[C@@H]3CCCN[C@@H]3C2)c(F)cc2c(=O)c(C(=O)O)cn(C3CC3)c12 [MOXIFLOXACIN]
97%: Activity (Streptococcus pneumoniae [21])
99.2%: Activity (Streptococcus pneumoniae [16]) | Activity (Streptococcus pneumoniae [17]) | Activity (Streptococcus pneumoniae [18])
96.6%: Activity (Streptococcus pneumoniae [22])
100%: Activity (Streptococcus pneumoniae [10]) | Activity (Streptococcus pneumoniae [11]) | Activity (Streptococcus pneumoniae [12]) | Activity (Streptococcus pneumoniae [13]) | Activity (Streptococcus pneumoniae [14]) | Activity (Streptococcus pneumoniae [15]) | Activity (Streptococcus pneumoniae [19]) | Activity (Streptococcus pneumoniae [20]) | Activity (Streptococcus pneumoniae [23])
≤ 0.5 µg/mL: MIC (Streptococcus pneumoniae [1]) | MIC50 (Streptococcus pneumoniae [1]) | MIC90 (Streptococcus pneumoniae [1]) | MIC (Streptococcus pneumoniae [2]) | MIC50 (Streptococcus pneumoniae [2]) | MIC90 (Streptococcus pneumoniae [2]) | MIC (Streptococcus pneumoniae [3]) | MIC50 (Streptococcus pneumoniae [3]) | MIC90 (Streptococcus pneumoniae [3]) | MIC (Streptococcus pneumoniae [4]) | MIC50 (Streptococcus pneumoniae [4]) | MIC90 (Streptococcus pneumoniae [4]) | MIC (Streptococcus pneumoniae [5]) | MIC50 (Streptococcus pneumoniae [5]) | MIC90 (Streptococcus pneumoniae [5]) | MIC (Streptococcus pneumoniae [6]) | MIC50 (Streptococcus pneumoniae [6]) | MIC90 (Streptococcus pneumoniae [6])
